Experimental data reported in patent publication US20200163995A1, “PHAR[…] AND USES THEREOF” (Johnpro Biotech Inc., priority 2017, published 2020).
Read-outs that look alike come from different tables or passages of the source.

What was measured:
HCT116 cells [1] = experiment: 5-fluorouracil IC50 in HCT116 cells alone or co-treated with sodium butyrate or 5-azacytidine; format: cell-based, Human; conditions: for induction of drug resistance (5-fluorouracil) in cancer cells: HCT116 and WiDr cells, co-treatment with 5-fluorouracil 72 hours, sodium butyrate 0.1 mM, 5-azacytidine 1 μM
Description: (§1) Human colon cancer cell line LS174T (ATCC® CL-188™) and WiDr cells (ATCC CCL-218™) were maintained in alpha modification of Eagle's minimum essential medium (α-MEM) containing 1.5 g/L sodium bicarbonate and 10% fetal bovine serum (FBS). HCT116 cells (ATCC® CCL-247™) were cultured in McCoy's 5A medium containing 1.5 g/L sodium bicarbonate, 4.5 g/L glucose, 10 mM HEPES, 1.0 mM sodium pyruvate and 10% FBS. The NK92MI and NK92MI-CEA cells were cultured in α-MEM supplemented with 1.5 g/L sodium bicarbonate, 0.2 mM inositol, 0.02 mM folic acid, 0.01 mM 2-mercaptoethanol, 10% FBS and 12.5% horse serum. All cells were incubated at 37° C. in a humidified incubator with 5% CO2.
(§2) HCT116 and WiDr cells were co-treated with sodium butyrate (0.1 mM) or 5-azacytidine (1 μM) and different concentration of 5-fluorouracil (1.2, 2.4, 4.8, 9.6, and 19.2 μM) for 72 hours.

HCT116 cells [2] = system: HCT116 cells
Description: In this experiment, the cancer cells (i.e., HCT116 or WiDr cells) and the NK cells (i.e., NK92MI or NK92MI-CEA cells) respectively served as the target and effector cells. In brief, the target cells were co-incubated with the effector cells at various effector/target ratios (E/T), including 10:1, 5:1, 1:1, and 0.5:1, in a round-bottom 96-well culture plate. After incubating at 37° C. for 24 hours, 50 μl of the supernatant was isolated and mixed with 50 μl of CYTOTOX 96® Reagent in a flat-bottom 96-well enzymatic assay plate. The mixture was incubated at room temperature for 30 minutes followed by adding 50 μl stop solution (H2SO4) to stop the reaction. The absorbance was measured at 490 nm. The percentage of cytotoxicity for each effector:target cell ratio was calculated by the equation of,
(Experimental−culture medium background)−(Effector cell spontaneous release−culture medium background)−(Target spontaneous release−culture medium background)/(Target maximum release−volume correction control−Target spontaneous release−culture medium background)×100.

[3] = system: CEA expression on cancer cells; experiment: Determination of CEA expression on cancer cells by flow cytometry after drug treatment; format: cell-based, Human; conditions: data not shown
Description: The expression level of CEA on cancer cells were determined by flow cytometry. Cancer cells were stained with the human CEA-specific antibody followed by the analysis of flow cytometry. The fluorescence intensities of at least 10^5 cells were recorded and analyzed by software. Geometric mean was chosen as mean fluorescence intensity (MFI).
(§3) In this example, cancer cells were first treated with various types of anti-cancer drugs, before been subject to the treatment of NK92MI-CEA cells.

cancer cells = experiment: Resistance of drug-treated cancer cells to chemotherapy and radiation therapy (data not shown); format: cell-based
From the text: as §3

WiDr cells [4] = experiment: WiDr xenograft in SCID mice, tumor volume; format: in vivo; conditions: SCID mice with WiDr tumors
Description: 2×10^6 WiDr cells were subcutaneously implanted on the back of 9-weeks-old SCID mice. When tumors reached a volume of 100-200 mm^3, the mice were intraperitoneally administered with 200 mg/kg sodium butyrate for 5 consecutive days. Then, the mice were assigned into five groups: (1) control group, in which the mice were orally administrated with PBS every day, and intraperitoneally administrated with PBS every 4 days; (2) NaB group, in which the mice were orally administrated with 5 g/kg sodium butyrate every day, and intraperitoneally administrated with PBS every 4 days; (3) NK92MI group, in which the mice were orally administrated with PBS every day, and intraperitoneally administrated with NK92MI cells every 4 days; (4) NK92MI-CEA group, in which the mice were orally administrated with PBS every day, and intraperitoneally administration with NK92MI-CEA cells every 4 days; and (5) NK92MI-CEA+NaB group, in which the mice were orally administration with 5 g/kg sodium butyrate every day, and intraperitoneally administration with NK92MI-CEA every 4 days. Tumor volume of the mice was measured every 2-3 days, and tumor volumes on were calculated using the formula: length×(width)^2÷2 (*p<0.05). […]
The in vivo anti-tumor activity of NK92MI-CEA cells was evaluated in this example. […]

[5] = system: serum circulating CEA (cCEA); experiment: Serum circulating CEA (ELISA) in WiDr tumor-bearing SCID mice; format: in vivo; conditions: FIG. 4C, control group 520 pg/ml
WiDr cells [6] = experiment: 5-fluorouracil IC50 in WiDr cells alone or co-treated with sodium butyrate or 5-azacytidine; format: cell-based; conditions: Homo sapiens, 72 hours, co-treatment sodium butyrate 0.1 mM or 5-azacytidine 1 μM, three independent experiments, read-out: IC50 of 5-fluorouracil (μM) Mean ± SD
Description: as §1, §2

IC50 (HCT116 cells [1]; Homo sapiens, HCT-116, HCT116 cells, 72 hours, co-treatment sodium butyrate 0.1 mM or 5-azacytidine 1 μM, three independent experiments, read-out: IC50 of 5-fluorouracil (μM) Mean ± SD) [µM]	IC50 (WiDr cells [6]) [µM]	SMILES	induction of drug resistance (5-fluorouracil) in cancer cells (HCT116 cells [1])	enhancement of cytotoxic effect of NK92MI-CEA cells (HCT116 cells [2])	CEA expression on cancer cells [3]	resistance of cancer cells to chemotherapy and radiation therapy (cancer cells)	enhancement of cytotoxic effect of NK92MI-CEA cells (HCT116 cells [2]; HCT116 cells treated with agent, E/T ratio 10:1, 5:1, 1:1 or 0.5:1, versus control and untreated groups, FIGS. 3A, 3B)	tumor growth (FIG. 4A) (WiDr cells [4]; NK cells i.p. every 4 days, sodium butyrate 5 g/kg orally every day)	tumour growth / tumour size (FIG. 4B) (WiDr cells [4]; compared to control group)	concentration of cCEA in the serum of mice [5] [pg/mL]
		Nc1ncn([C@@H]2O[C@H](CO)[C@@H](O)[C@H]2O)c(=O)n1 [5-azacytidine]	induced drug resistance in cancer cells	significantly enhanced cytotoxic effect	significantly increased CEA expression	rendered the cancer cells resistant to the chemotherapy and radiation therapy				
		CCCC(=O)[O-].[Na+] [sodium butyrate]	induced drug resistance in cancer cells		significantly increased CEA expression	rendered the cancer cells resistant to the chemotherapy and radiation therapy	significantly enhanced cytotoxic effect	obviously enhanced the anti-tumor effect of NK92MI-CEA cells	did not obviously inhibit tumour growth	990
4.39 ± 3.1	4.67 ± 0.55	O=c1[nH]cc(F)c(=O)[nH]1 [5-fluorouracil]								
